Experiments:
Settings in all cases: 10-100 μM concentrations
[1] = test system: mitochondrial electron transport chain and ATP synthase (Complex I-V); assay: MitoCheck Complex I-V activity assays in isolated mitochondria; type: biochemical, bovine
Protocol: MitoCheck Complex I-V activity assays were conducted in an Agilent Seahorse XFe96 analyzer to determine the effects of compounds on the mitochondrial electron transport chain and ATP synthase in isolated mitochondria. Compounds were screened in a dose dependent manner using 10-point ½ log dilutions in quadruplicate along with a […] for each of the five complexes.
Complex I activity was determined using an assay that measures the rotenone-sensitive rate of NADH oxidation by complex I in isolated bovine heart mitochondria. To prevent oxidation of ubiquinol by complex III, KCN (1 mM) was present to inhibit the downstream electron transport chain. […]
Complex II activity was determined using an assay that measures the succinate dependent rate of DCPIP reduction in isolated bovine heart mitochondria. […]
Complex III activity was determined using an assay measures the rate of cytochrome c reduction by the passage of electrons from complex II to complex III via ubiquinone in isolated bovine heart mitochondria. […]
Complex IV activity was determined using an assay that measures the rate of cytochromec oxidation by complex IV in isolated bovine heart mitochondria. […]
Complex V activity was determined using an assay that measures the rate of […] resulting from a series of coupled reactions linked to the hydrolysis of ATP by complex V in isolated bovine heart mitochondria. […]

[2] = test system: HMEC-1 human dermal endothelial cells; assay: Cell TiterGlo ATP Luminescent Cell Viability assay (total cellular ATP); type: cell-based
Protocol: The Cell TiterGlo ATP Luminescent Cell Viability assay (Promega Cat. #G7571) was run to measure total cellular ATP in response to compound treatment. Assays were performed using HMEC-1 human dermal endothelial cells. Compounds were screened using 8-point ½ log dilutions in duplicate in the presence of vehicle.

[3] = test system: HMEC-1 human dermal endothelial cells; assay: Mitochondrial stress test (Agilent Seahorse XFe96); type: cell-based
Protocol: A mitochondrial stress test was also conducted to determine the effects of the experimental compounds on cellular mitochondria. Assays were conducted using HMEC-1 human dermal endothelial cells optimized for use with the Agilent Seahorse XFe96 analyzer. HMEC-1 cells were obtained from ATCC and cultured in accordance with the supplier's guidelines: complete cell culture media consisted of MCD 131 supplemented with 10 ng/ml EGF 1 μg/ml hydrocortisone, 10 mM glutamine, 10% FBS, and 1% penicillin/streptomycin. To determine optimal cell seeding densities, cells were seeded in Agilent XF96 cell culture microplates at 80,000 cells/well at the highest concentration. […] Cell viability was assessed using trypan blue exclusion. […] (non-CO2) for 1 hour and imaged with a Cytation 5 imaging multimode plate reader (BioTek instruments) and analyzed using Prism 9.0 (GraphPad Software.) The stress test profile cycled through 18 minute exposures to oligomycin 1 μg/ml, FCCP 2 μM and antimycin A 10 μM/rotenone 1 μM. At the completion of the mitochondrial stress test, cells were imaged and Hoechst positive nuclei were quantified using the Seahorse Cell Analysis software. All data were analyzed using Wave Analysis software (version 2.6.1.53) and Prism 9.0 (GraphPad software). […]

O=C(CO)NCCCN[C@@H]1CO[C@H]2[C@@H]1OC[C@@H]2O[N+](=O)[O-] [CR-0305, (3S,3aS,6R,6aR)-6-((3-(2-hydroxyacetamido)propyl)amino)hexahydrofuro[3,2-b]furan-3-yl nitrate]
No significant toxicity: Toxicity, MitoCheck Complex I-V activity [1] | Toxicity, effect of drug on ATP synthesis [2] | Toxicity, mitochondrial stress test [3]
